Measurements as given in patent US20220380371A1, “MLL1 INHIBITORS AND ANTI-CANCER AGENTS” (NOVARTIS AG, priority 2019, published 2022).
Like-named read-outs stand apart in the source and are kept apart here.

Key:
[1] = target: wild type MLL1 four-member complex (MLL1-4C) (Homo sapiens, UniProt Q03164); experiment: MLL1 LC-MS Assay; type: biochemical
Method: The compounds of the present disclosure were serially and separately diluted 3-fold in DMSO to obtain a total of eight or twelve concentrations. Then the test compounds at each concentration (120 nL of each) were transferred by Mosquito into white Proxiplate plus 384-well microplate (PerkinElmer). Solutions (6 μL) of 60 nM wild type MLL1 four-member complex (MLL1-4C) and 5 μM SAM in the reaction buffer (20 mM Tris-HCl, pH 8.0, 0.01% Tween 20, 1 mM DTT, 10 mM MgCl2, 0.01% BSA) were added to the wells that were then incubated with the test compound for 20 min. A 6 μL solution of 20 μM of the peptide substrate H3K4me0 (histone H3[1-21]-Biotin) in the reaction buffer was added to initiate each reaction. The final components in the reaction solution include 30 nM MLL1-4C, 2.5 μM SAM, and 10 μM H3K4me0 with varying concentration of the compounds. A positive control consisted of 30 nM MLL1-4C, 2.5 μM SAM, and 10 μM substrate in the absence of the test compound, and a negative control consisted of 2.5 μM SAM, and 10 μM substrate only. Each reaction was incubated at rt for 120 min, then stopped by addition of 3 μL per of quench solution (2.5% TFA with 320 nM d4-SAH). The reaction mixture was centrifuged (Eppendorf centrifuge 5810, Rotor A-4-62) for 2 min at 2000 rpm. The SAH production from the enzymatic assays were monitored by LC-MS/MS on an API 4000 triple quadrupole mass spec with Turbolon Spray (Applied Biosystem) coupled with Prominenece UFLC (Shimazu). The level of SAH production were then normalized based on the values coming from the positive and negative controls to give percent enzyme activities. The data were then fit to a dose response equation using the program Helios (Novartis) to get the IC50 values of the test compounds.

[2] = tested on: H3K4me3 in MV4-11 cells; experiment: MV4-11 H3K4me3 Cellular ELISA Assay; type: cell-based; settings: Homo sapiens, MV4-11, 48 h
Method: MV4-11 H3K4me3 Cellular ELISA Assay
MV4-11 (ATCC® CRL-9591™) was cultured with RPMI1640 medium (Thermo Fisher Scientific, cat #11875) supplemented with 10% FBS (Thermo Fisher Scientific, cat #10099141) and 50 U/ml Penicillin-Streptomycin (Thermo Fisher Scientific, cat #10378016) in humidified incubator at 37° C., 5% CO2.
200 nL compounds dissolved in DMSO were serially diluted at 1:3 ratio for 12 points starting from 10 mM and dispensed into each wells of cell culture plates (PDL-coated ViewPlate-384 Black, FTC, PerkinElmer, #6007710). 3,750 MV4-11 cells in 40 μL culture medium were seeded into each well and treated with desired concentration for 48 hours. After treatment, wash cells with cold phosphate based buffer (PBS, pH 7.4) and aspirate the remaining PBS buffer. Crude histone lysate was extracted by 40 μL 0.5M HCl for 1 hour in 4° C. following neutralization by adding 32 μL neutralization buffer (0.5M Sodium phosphate dibasic, pH ˜12.5, 1.25 mM Dithiothreitol, Promega #V3151, Protease Inhibitor Cocktail, Sigma #8340) for each well. 5 μL and 20 μL of histone lysate was loaded to ELISA plate (384 Well Plates, PE HB, White, 6005620) for detection of total H3 and H3K4me3, respectively. Shake the plates gently in 4° C. for overnight. After histone binding, plates were washed with 80 μL PBS/T (PBS with 0.05% Tween-20) and blocked with 50 μL 3% BSA diluted in PBS/T per well for 1 hour. Incubate wells with primary antibody for 1 hour at room temperature using anti-H3K4me3 (CST #9727) and anti-total H3 (CST #9715) diluted 1:2000 in 3% BSA. Plates were then washed with PBS/T for 3 times and incubated with horseradish peroxidase (HRP) conjugated secondary antibody (CST #7074, 1:5000) for 1 hour at room temperature. The abundance of H3K4me3 and total H3 were measured by ECL substrates chemiluminescence (Pierce, #34080) on a plate reader (PerkinElmer EnVison 2104 Mutilable Reader). Percentage inhibition was calculated against DMSO control after normalization of H3K4me3 signal to H3 signal for individual samples. The data were then fit to a dose response curve using GraphPad Prism for IC50 calculation.

[3] = tested on: MV4-11 cells; experiment: MV4-11 6-Day Cell Growth CTG (CellTiter-Glo) Assay; type: cell-based; settings: Homo sapiens, MV4-11, 144 h, MV4-11 cell growth CellTiter-Glo, 6 days
Method: MV4-11 6-Day Cell Growth CTG (CellTiter-Glo) Assay
Acute myeloid leukemia cell MV4-11 (ATCC® CRL-9591™) was cultured with RPMI 1640 medium (Thermo Fisher Scientific, cat #11875) supplemented with 10% FBS (Thermo Fisher Scientific, cat #10099141) in humidified incubator at 37° C., 5% CO2. To assess the effect of MLL1 inhibition on cell growth, the compound of the present invention was dissolved in DMSO and serially diluted at 1:3 for 12 points starting from 10 mM then 200 nL for the replicate of each dose per well was dispensed to Viewplate-384 Black (Perkin Elmer). Exponentially growing MV4-11 cells were seeded at the density of 300 cells per well in 40 μL to the plate, so the final compound working concentration starts from 50 μM. After 6 days, 40 μL CellTiter-Glo (Promega, cat #G7573) was added into the cell culture well and luminescence was read with Envision (Perkin Elmer) to determine the viable cells. The percentage inhibition was calculated against the samples treated with DMSO only and the data were used for dose response curve fitting in GraphPad Prism to get the IC50 of representative compound of present invention, which reflects the inhibition of MLL1 activity.

CCNC(=O)CC[C@@]1(N)CCN(c2cc(Cl)cc(Br)c2Cn2cnc3c(N)ncnc32)C1 (single isomer, unassigned) [Example 36]
IC50 ([1]; read-out: LCMS): 50 to 100 nM | IC50 [2]: > 3000 nM

Nc1ncnc2c1ncn2Cc1c(Br)cc(Cl)cc1N1CC[C@](N)(CCc2nn[nH]n2)C1 (single isomer, unassigned) [Example 39]
IC50 ([1]; read-out: LCMS): < 50 nM | IC50 [2]: > 3000 nM

Nc1ncnc2c1ncn2Cc1c(N2CC[C@](N)(C(=O)NC3CC3)C2)ccc(F)c1C(O)C(F)(F)F (single isomer, unassigned) [Example 82]
IC50 [3]: 2000 to 3000 nM | IC50 ([1]; read-out: LCMS): > 100 nM | IC50 [2]: < 1900 nM

Nc1ncnc2c1ncn2Cc1c(Br)c(Cl)c2c(c1N1CC[C@](N)(C(=O)NC3CC3)C1)CCC2 (stereo in doubt) [Example 42]
IC50 [3]: 2000 to 3000 nM | IC50 ([1]; read-out: LCMS): 50 to 100 nM | IC50 [2]: < 1900 nM

Nc1ncnc2c1ncn2Cc1c(N2CC[C@](N)(C(=O)NC3CC3)C2)ccc(Cl)c1C1CC1 (stereo in doubt) [Example 97]
IC50 [3]: < 2000 nM | IC50 ([1]; read-out: LCMS): < 50 nM | IC50 [2]: > 3000 nM

C#Cc1c(F)ccc(N2CC[C@](N)(C(=O)NC3CC3)C2)c1Cn1cnc2c(N)ncnc21 [Example 5]
IC50 [3]: < 2000 nM | IC50 ([1]; read-out: LCMS): 50 to 100 nM | IC50 [2]: < 1900 nM

Nc1ncnc2c1ncn2Cc1c(N2CC[C@](N)(C(=O)NC3CC3)C2)ccc(F)c1CC(F)(F)F [Example 6]
IC50 [3]: < 2000 nM | IC50 ([1]; read-out: LCMS): < 50 nM | IC50 [2]: < 1900 nM

Nc1ncnc2c1ncn2Cc1c(CC(F)(F)F)cc(Cl)cc1N1CC[C@](N)(C(=O)NC2CC2)C1 [Example 7]
IC50 [3]: > 3000 nM | IC50 ([1]; read-out: LCMS): 50 to 100 nM | IC50 [2]: < 1900 nM

Nc1ncnc2c1ncn2Cc1c(N2CC[C@](N)(C(=O)NC3CC3)C2)ccc(F)c1C1CC1 [Example 8]
IC50 [3]: < 2000 nM | IC50 ([1]; read-out: LCMS): 50 to 100 nM | IC50 [2]: < 1900 nM

C=Cc1c(F)ccc(N2CCC(N)(C(=O)NC3CC3)C2)c1Cn1cnc2c(N)ncnc21 (stereo not shown) [Example 9]
IC50 [3]: < 2000 nM | IC50 ([1]; read-out: LCMS): > 100 nM | IC50 [2]: < 1900 nM

CCc1c(F)ccc(N2CC[C@](N)(C(=O)NC3CC3)C2)c1Cn1cnc2c(N)ncnc21 [Example 10]
IC50 [3]: < 2000 nM | IC50 ([1]; read-out: LCMS): < 50 nM | IC50 [2]: < 1900 nM

Cc1c(C(F)(F)F)ccc(N2CC[C@](N)(C(=O)NC3CC3)C2)c1Cn1cnc2c(N)ncnc21 [Example 11]
IC50 [3]: < 2000 nM | IC50 ([1]; read-out: LCMS): < 50 nM | IC50 [2]: < 1900 nM

CCc1c(C(F)(F)F)ccc(N2CC[C@](N)(C(=O)NC3CC3)C2)c1Cn1cnc2c(N)ncnc21 [Example 12]
IC50 [3]: < 2000 nM | IC50 ([1]; read-out: LCMS): 50 to 100 nM | IC50 [2]: < 1900 nM

Nc1ncnc2c1ncn2Cc1c(N2CC[C@](N)(C(=O)NC3CC3)C2)ccc(F)c1Br [Example 13]
IC50 [3]: < 2000 nM | IC50 ([1]; read-out: LCMS): < 50 nM | IC50 [2]: < 1900 nM

COc1ccc(Br)c(Cn2cnc3c(N)ncnc32)c1N1CC[C@](N)(C(=O)NC2CC2)C1 [Example 21]
IC50 ([1]; read-out: LCMS): 50 to 100 nM | IC50 [2]: > 3000 nM

C=Cc1cc(Cl)cc(N2CC[C@](N)(c3nc[nH]n3)C2)c1Cn1cnc2c(N)ncnc21 [Example 24]
IC50 [3]: < 2000 nM | IC50 ([1]; read-out: LCMS): < 50 nM | IC50 [2]: < 1900 nM

CCc1cc(Cl)cc(N2CC[C@](N)(c3nc[nH]n3)C2)c1Cn1cnc2c(N)ncnc21 [Example 25]
IC50 [3]: < 2000 nM | IC50 ([1]; read-out: LCMS): < 50 nM | IC50 [2]: < 1900 nM

Nc1ncnc2c1ncn2Cc1c(N2CC[C@](N)(c3ccccc3)C2)ccc(F)c1C(F)(F)F [Example 26]
IC50 [3]: 2000 to 3000 nM | IC50 ([1]; read-out: LCMS): 50 to 100 nM | IC50 [2]: 1900 to 3000 nM

Nc1ncnc2c1ncn2Cc1c(Br)cc(Cl)cc1N1CC[C@](N)(c2cc(C(F)(F)F)ccn2)C1 [Example 27]
IC50 ([1]; read-out: LCMS): < 50 nM | IC50 [2]: > 3000 nM

COC(=O)[C@@]1(N)CCN(c2cc(Cl)cc(C3CCC3)c2Cn2cnc3c(N)ncnc32)C1 [Example 29]
IC50 [3]: < 2000 nM | IC50 ([1]; read-out: LCMS): < 50 nM | IC50 [2]: < 1900 nM

Nc1ncnc2c1ncn2Cc1c(Br)cc(Cl)cc1N1CC[C@](N)(COCC(=O)NC2CC2)C1 [Example 30]
IC50 ([1]; read-out: LCMS): > 100 nM | IC50 [2]: > 3000 nM

CCOC(=O)CC[C@@]1(N)CCN(c2cc(Cl)cc(Br)c2Cn2cnc3c(N)ncnc32)C1 [Example 34]
IC50 ([1]; read-out: LCMS): > 100 nM | IC50 [2]: < 1900 nM

CCc1cc(Cl)cc(N2CC[C@](N)(CCc3nnc(NC)s3)C2)c1Cn1cnc2c(N)ncnc21 [Example 35]
IC50 ([1]; read-out: LCMS): 50 to 100 nM | IC50 [2]: > 3000 nM

NC(=O)CCC1(N)CCN(c2cc(Cl)cc(Br)c2Cn2cnc3c(N)ncnc32)C1 (stereo not shown) [Example 37]
IC50 ([1]; read-out: LCMS): > 100 nM | IC50 [2]: > 3000 nM

CCNC(=O)CC[C@@]1(N)CCN(c2cc(Cl)cc(CC)c2Cn2cnc3c(N)ncnc32)C1 [Example 38]
IC50 ([1]; read-out: LCMS): < 50 nM | IC50 [2]: > 3000 nM

CCc1cc(Cl)cc(N2CC[C@](N)(CCc3nn[nH]n3)C2)c1Cn1cnc2c(N)ncnc21 [Example 40]
IC50 ([1]; read-out: LCMS): > 100 nM | IC50 [2]: > 3000 nM

COC(=O)NCc1c(F)ccc(N2CC[C@](N)(C(=O)NC3CC3)C2)c1Cn1cnc2c(N)ncnc21 [Example 71]
IC50 ([1]; read-out: LCMS): < 50 nM | IC50 [2]: > 3000 nM

CN(C)Cc1c(Cl)cc(Cl)c(N2CC[C@](N)(C(=O)NC3CC3)C2)c1Cn1cnc2c(N)ncnc21 [Example 74]
IC50 ([1]; read-out: LCMS): > 100 nM | IC50 [2]: > 3000 nM

CN(C)Cc1cc(Cl)c(Cl)c(N2CC[C@](N)(C(=O)NC3CC3)C2)c1Cn1cnc2c(N)ncnc21 [Example 89, (R)-3-amino-1-(2-((6-amino-9H-purin-9-yl)methyl)-5,6-dichloro-3-((dimethylamino)methyl)phenyl)-N-cyclopropylpyrrolidine-3-carboxamide]
IC50 ([1]; read-out: LCMS): > 100 nM | IC50 [2]: > 3000 nM

Cn1nnc([C@@]2(N)CCN(c3cc(Cl)cc(Br)c3Cn3cnc4c(N)ncnc43)C2)n1 [Example 91, (R)-9-(2-(3-amino-3-(2-methyl-2H-tetrazol-5-yl)pyrrolidin-1-yl)-6-bromo-4-chlorobenzyl)-9H-purin-6-amine]
IC50 ([1]; read-out: LCMS): 50 to 100 nM | IC50 [2]: > 3000 nM

Cc1ccc(Cl)c(Cn2cnc3c(N)ncnc32)c1N1CCC(N)(C(=O)NC2CC2)C1 (stereo not shown) [Example 157]
IC50 ([1]; read-out: MLL1 LCMS): > 100 nM | IC50 [2]: > 3000 nM

Nc1ncnc2c1ncn2Cc1c(N2CC[C@@](N)(C(=O)NC3CC3)C2)ccc2ccccc12 [Example 166]
IC50 ([1]; read-out: MLL1 LCMS): 50 to 100 nM | IC50 [2]: < 1900 nM

Nc1ncnc2c1ncn2Cc1c(N2CC[C@](N)(C(=O)NC3CC3)C2)ccc2cc(Br)ccc12 [Example 167]
IC50 ([1]; read-out: MLL1 LCMS): < 50 nM | IC50 [2]: < 1900 nM
